Patent US20250215029A1 (Recludix Pharma, Inc., priority 2022, published 2025)
pIC50: −log10 of the molar value. Read-outs that look alike come from different tables or passages of the source.

Experiments:
pY641-STAT6 in PBMC = biological target: T1, pY641-STAT6 in PBMC (Homo sapiens, UniProt P42226); assay: MSD-pSTAT-PBMC Assay (pSTAT6, IL-4 stimulated); format: cell-based; conditions: compound 3 hrs, then 1 ng/mL IL-4 for 10 min
T1 construct: Cryopreserved Peripheral Blood Mononuclear Cells (PBMC) are from AllCells; host or cells: cryopreserved PBMC
T1 sequence (P42226 1-847): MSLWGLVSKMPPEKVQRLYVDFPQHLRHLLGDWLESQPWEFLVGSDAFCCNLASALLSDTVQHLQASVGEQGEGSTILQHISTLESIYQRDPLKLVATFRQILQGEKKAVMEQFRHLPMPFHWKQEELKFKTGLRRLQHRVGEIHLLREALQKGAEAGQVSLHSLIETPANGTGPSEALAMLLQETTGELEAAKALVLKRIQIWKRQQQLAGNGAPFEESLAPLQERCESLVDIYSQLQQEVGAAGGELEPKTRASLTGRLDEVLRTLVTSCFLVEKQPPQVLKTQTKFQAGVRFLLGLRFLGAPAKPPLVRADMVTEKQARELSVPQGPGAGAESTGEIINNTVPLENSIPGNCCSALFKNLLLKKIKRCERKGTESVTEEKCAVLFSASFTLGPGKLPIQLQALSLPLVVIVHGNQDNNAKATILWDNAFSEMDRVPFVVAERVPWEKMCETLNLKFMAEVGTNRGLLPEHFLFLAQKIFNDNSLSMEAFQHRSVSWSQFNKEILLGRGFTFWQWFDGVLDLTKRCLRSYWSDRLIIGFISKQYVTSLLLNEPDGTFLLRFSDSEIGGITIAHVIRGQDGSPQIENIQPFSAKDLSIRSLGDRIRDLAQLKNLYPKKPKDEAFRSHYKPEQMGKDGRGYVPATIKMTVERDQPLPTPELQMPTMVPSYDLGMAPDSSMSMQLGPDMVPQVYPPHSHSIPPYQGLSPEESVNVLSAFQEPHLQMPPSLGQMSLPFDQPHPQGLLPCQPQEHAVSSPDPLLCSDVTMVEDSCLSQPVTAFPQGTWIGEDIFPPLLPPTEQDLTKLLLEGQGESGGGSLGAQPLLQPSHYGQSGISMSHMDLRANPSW
Summary of the method: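 Cells are preincubated with compound for 3 hrs, then stimulated for 10 min, IL-4 at 1 ng/mL driving STAT6 phosphorylation and IL-6 at 10 ng/mL driving STAT3. Phospho-STAT in lysates is quantified by MSD immunoassay, and IC50 is fitted after subtracting unstimulated wells.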

pY705-STAT3 in PBMC = biological target: T2, pY705-STAT3 in PBMC (Homo sapiens, UniProt P40763); assay: MSD-pSTAT-PBMC Assay (pSTAT3, IL-6 stimulated); format: cell-based; conditions: PBMC, compound 3 hrs, then 10 ng/mL IL-6 for 10 min
T2 construct: Cryopreserved Peripheral Blood Mononuclear Cells (PBMC) are from AllCells; host or cells: cryopreserved PBMC
T2 sequence (P40763 whole entry): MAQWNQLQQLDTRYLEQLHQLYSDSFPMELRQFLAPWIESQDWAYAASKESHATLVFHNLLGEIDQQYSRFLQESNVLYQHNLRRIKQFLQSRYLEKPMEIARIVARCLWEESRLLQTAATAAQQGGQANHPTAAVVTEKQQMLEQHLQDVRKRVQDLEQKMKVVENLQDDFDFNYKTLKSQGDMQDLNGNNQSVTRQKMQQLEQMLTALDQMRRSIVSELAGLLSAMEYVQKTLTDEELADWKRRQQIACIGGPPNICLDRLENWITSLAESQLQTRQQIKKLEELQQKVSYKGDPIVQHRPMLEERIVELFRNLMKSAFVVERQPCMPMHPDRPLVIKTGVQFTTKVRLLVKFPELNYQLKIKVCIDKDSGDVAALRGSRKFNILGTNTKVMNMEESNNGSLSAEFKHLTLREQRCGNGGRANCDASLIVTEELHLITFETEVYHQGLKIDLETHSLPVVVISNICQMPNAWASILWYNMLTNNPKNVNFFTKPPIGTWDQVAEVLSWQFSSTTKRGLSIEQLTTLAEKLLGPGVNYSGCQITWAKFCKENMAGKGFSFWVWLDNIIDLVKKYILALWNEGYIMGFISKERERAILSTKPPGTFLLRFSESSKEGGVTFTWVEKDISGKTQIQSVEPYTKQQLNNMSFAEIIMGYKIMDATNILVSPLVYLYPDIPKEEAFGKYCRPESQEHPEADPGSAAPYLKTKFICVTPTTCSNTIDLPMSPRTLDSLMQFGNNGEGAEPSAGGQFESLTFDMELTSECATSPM
Summary of the method: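 PBMC (human, cryopreserved, overnight recovery) + cpd 3 hrs → IL-6 10 ng/mL (STAT3) or IL-4 1 ng/mL (STAT6) ×10 min → lysis with protease/phosphatase inhibitors → MSD capture/phospho detection. IC50, variable slope, DMSO-normalized.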

[1] = PBMC, Table 1114, read-out: pSTAT6
[2] = PBMC, Table 115, read-out: STAT6

| Compound | pIC50 (pY641-STAT6 in PBMC; [1]) | pIC50 (pY705-STAT3 in PBMC; Table 1114, read-out: pSTAT3) | pIC50 (pY641-STAT6 in PBMC; [2]) | pIC50 (pY705-STAT3 in PBMC; Table 115, read-out: STAT3) | pIC50 (pY641-STAT6 in PBMC; STAT6, PBMC, Table 115) |
| --- | --- | --- | --- | --- | --- |
| CCCC(=O)SCCOP(=O)(OCCSC(=O)CCC)C(F)(F)c1ccc2sc(C(=O)N[C@H]3CCCC[C@H]4CC[C@@H](C(=O)N5C[C@@H](C#N)[C@H](c6ccccc6)C5)N4C3=O)cc2c1 (relative stereo) [Compound 126, S,S′-(((((2-(((3S,6S,10aS)-3-(rel-trans)-3-cyano-4-phenylpyrrolidine-1-carbonyl)-5-oxodecahydro-pyrrolo[1,2-a]azocin-6-yl)carbamoyl)benzo[b]thiophen-5-yl)difluoromethyl)phosphoryl)bis(oxy)) bis(ethane-2,1-diyl)) dibutanethioate] | > 7.00 | 6.00 to 7.00 |  |  |  |
| CC(C)(C)C(=O)OCOP(=O)(OCOC(=O)C(C)(C)C)C(F)(F)c1ccc2sc(C(=O)N[C@H]3CCCCC4CC[C@@H](C(=O)N5C[C@H](C6CCCCC6)[C@@H](C#N)C5)N4C3=O)cc2c1 (relative stereo) [Compound 143, ((((2-(((3S,6S,10aS)-3-(rel-(trans)-3-cyano-4-cyclohexyl-pyrrolidine-1-carbonyl)-5-oxodecahydro-pyrrolo[1,2-a]azocin-6-yl)carbamoyl)benzo[b]thiophen-5-yl)difluoromethyl)phosphoryl)bis (oxy))bis (methylene) bis (2,2-dimethyl-propanaote)] | > 7.00 | 6.00 to 7.00 |  |  |  |
| CC(C)(C)C(=O)OCOP(=O)(OCOC(=O)C(C)(C)C)C(F)(F)c1ccc2sc(C(=O)N[C@H]3CCCCC[C@H]4CC[C@@H](C(=O)N5C[C@@H](C#N)[C@H](c6ccccc6)C5)N4C3=O)cc2c1 (relative stereo) [Compound 146, ((((2-(((3S,6S,11aS)-3-(rel-(trans)-3-cyano-4-phenylpyrrolidine-1-carbonyl)-5-oxodecahydro-1H-pyrrolo[1,2-a]azonin-6-yl)carbamoyl)benzo[b]thiophen-5-yl)difluoromethyl)phosphoryl)bis (oxy))bis(methylene) bis(2,2-dimethyl-propanoate)] | > 7.00 | 5.52 to 6.00 |  |  |  |
| CCCOC(=O)[C@H](C)NP(=O)(Oc1ccccc1)C(F)c1ccc2sc(C(=O)N[C@H]3CCCC[C@H]4CC[C@@H](C(=O)N5C[C@@H](c6ccccc6)[C@H](C#N)C56CC6)N4C3=O)cc2c1 (relative stereo) [Compound 325, propyl (((2-(((3S,6S,10aS)-3-((rel-trans)-7-cyano-6-phenyl-4-azaspiro[2.4]heptane-4-carbonyl)-5-oxodecahydropyrrolo [1,2-a]azocin-6-yl)carbamoyl)benzo [b]thiophen-5-yl)fluoromethyl) (phenoxy)phosphoryl)-L-alaninate] |  |  | > 7.00 | < 5.52 |  |
| CCCOC(=O)[C@H](C)NP(=O)(Oc1ccccc1)[C@@H](F)c1ccc2sc(C(=O)N[C@H]3CCCC[C@H]4CC[C@@H](C(=O)N5C[C@H](c6cccc(F)c6)C(C#N)C56CC6)N4C3=O)cc2c1 (relative stereo) [Compound 337, propyl (((R)-(2-(((3S,6S,10aS)-3-((rel-trans)-7-cyano-6-(3-fluorophenyl)-4-azaspiro[2.4]heptane-4-carbonyl)-5-oxodecahydropyrrolo [1,2-a]azocin-6-yl)carbamoyl)benzo [b]thiophen-5-yl)fluoromethyl) (phenoxy)phosphoryl)-L-alaninate] |  |  |  | < 5.52 | > 7.00 |
| CCCOC(=O)[C@H](C)NP(=O)(Oc1ccccc1)C(F)c1ccc2sc(C(=O)N[C@H]3CCCC[C@H]4CC[C@@H](C(=O)N5C(=O)N(c6cccnc6)C(=O)C56CCC6)N4C3=O)cc2c1 (stereo partly drawn) [Compound 992, propyl (((2-(((3S,6S,10aS)-3-(6,8-dioxo-7-(pyridin-3-yl)-5,7-diazaspiro[3.4]octane-5-carbonyl)-5-oxodecahydropyrrolo [1,2-a]azocin-6-yl)carbamoyl)benzo [b]thiophen-5-yl)fluoromethyl) (phenoxy)phosphoryl)-L-alaninate] |  |  |  |  | 6.00 to 7.00 |
| (4-methyl- 112,212,4- triazolidin-3- yl)methyl (((1R)- fluoro(2- (((3S,6S,9aS)-5- oxo-3-((R)-6- (pyridin-3-yl)-4- azaspiro[2.4]heptane- 4- carbonyl)octahydro- 1H-pyrrolo[1,2- a]azepin-6- yl)carbamoyl)-2,3- dihydrobenzo[b] thiophen-5- yl)methyl)(phenoxy) phosphoryl)-L- alaninate [Compound 373] |  |  | < 5.52 |  |  |

Further lines, with some results ahead:

| pIC50 (pY641-STAT6 in PBMC; [1]) | pIC50 (pY705-STAT3 in PBMC; Table 1114, read-out: pSTAT3) | Compound | pIC50 (pY641-STAT6 in PBMC; [2]) | pIC50 (pY705-STAT3 in PBMC; Table 115, read-out: STAT3) | pIC50 (pY641-STAT6 in PBMC; STAT6, PBMC, Table 115) |
| --- | --- | --- | --- | --- | --- |
| > 7.00 | 6.00 to 7.00 | CC(C)(C)C(=O)OCOP(=O)(OCOC(=O)C(C)(C)C)C(F)(F)c1ccc2sc(C(=O)N[C@H]3CCCC[C@H]4CC[C@@H](C(=O)N5CC(C#N)C(c6cc[nH]c(=O)c6)C5)N4C3=O)cc2c1 (mixture of isomers) [Compound 147, ((((2-(((3S,6S,10aS)-3-(rel-trans)-3-cyano-4-(2-oxo-1,2-dihydro-pyridin-4-yl)pyrrolidine-1-carbonyl)-5-oxodecahydro-pyrrolo[1,2-a]azocin-6-yl)carbamoyl)benzo[b]thiophen-5-yl)difluoromethyl)phosphoryl)bis (oxy))bis (methylene) bis(2,2-dimethylpropanoate)] |  |  |  |
| 6.00 to 7.00 | 6.00 to 7.00 | CC(C)(C)C(=O)OCOP(=O)(OCOC(=O)C(C)(C)C)C(F)(F)c1ccc2sc(C(=O)N[C@@]3(C)CCCCC4CC[C@@H](C(=O)N5C[C@H](c6ccccc6)[C@@H](C#N)C5)N4C3=O)cc2c1 (relative stereo) [Compound 151, ((((2-(((3S,6S,10aS)-3-(rel-trans)-3-cyano-4-phenylpyrrolidine-1-carbonyl)-6-methyl-5-oxodecahydro-pyrrolo[1,2-a]azocin-6-yl)carbamoyl)benzo[b]thiophen-5-yl)difluoromethyl)phosphoryl)bis (oxy))bis (methylene) bis(2,2-dimethylpropanoate)] |  |  |  |
| 6.00 to 7.00 | 6.00 to 7.00 | CC(C)(C)C(=O)SCCOP(=O)(OCCSC(=O)C(C)(C)C)C(F)(F)c1ccc2sc(C(=O)N[C@H]3CCCC[C@H]4CC[C@@H](C(=O)N5C[C@@H](C#N)[C@H](c6cc[nH]c(=O)c6)C5)N4C3=O)cc2c1 (relative stereo) [Compound 157, S,S′-(((((2-(((3S,6S,10aS)-3-(rel-(trans)-3-cyano-4-(2-oxo-1,2-dihydropyridin-4-yl)pyrrolidine-1-carbonyl)-5-oxodecahydro-pyrrolo[1,2-a]azocin-6-yl)carbamoyl)benzo [b]thiophen-5-yl)difluoromethyl)phosphoryl)bis(oxy))bis(ethane-2,1-diyl)) bis(2,2-dimethylpropane-thioate)] |  |  |  |
| > 7.00 | > 7.00 | CC(C)(C)C(=O)OCOP(=O)(OCOC(=O)C(C)(C)C)C(F)(F)c1ccc2sc(C(=O)N[C@H]3CCCC[C@H]4CC[C@@H](C(=O)N5C[C@H](c6ccccc6)[C@@H](C#N)C5)N4C3=O)cc2c1 (relative stereo) [Compound 190, ((((2-(((3S,6S,10aS)-3-(rel- trans)-3-cyano-4-phenyl-pyrrolidine-1-carbonyl)-5-oxodecahydro-pyrrolo[1,2-a]azocin-6-yl)carbamoyl)benzo[b]thiophen-5-yl)difluoro-methyl)phos-phoryl)bis(oxy)) bis(methylene) bis(2,2-dimethyl-propanoate)] |  |  |  |
| > 7.00 | 6.00 to 7.00 | CC(C)(C)C(=O)OCOP(=O)(OCOC(=O)C(C)(C)C)C(F)(F)c1ccc2ccc(C(=O)N[C@H]3CCCC[C@H]4CC[C@@H](C(=O)N5C[C@H](c6ccccc6)[C@@H](C#N)C5)N4C3=O)cc2c1 (relative stereo) [Compound 194, ((((7-(((3S,6S,10aS)-3-(rel-(trans)-3-cyano-4-phenyl-pyrrolidine-1-carbonyl)-5-oxodecahydro-pyrrolo[1,2-a]azocin-6-yl)carbamoyl)naphthalen-2-yl)difluoro-methyl)phos-phoryl)bis(oxy)) bis(methylene) bis(2,2-dimethyl-propanoate)] |  |  |  |
